Series [1] can be described thus: solubility of aclarubicin or its hydrochloride in solvents and in fats and oils. The note with it: for solubility: organic solvent or mixture. Type of series: physicochemical.
Series [2] in a line: solubilization of aclarubicin or aclarubicin hydro-chloride in fats and oils by acids. Type of series: physicochemical.

Converted amounts (≈) assume the structure as drawn. Counter-ions that a name gives are not always drawn. Like-named read-outs stand apart in the source and are kept apart here.

For orientation: solubility means how much of the substance goes into solution per volume. As to `CC[C@@]1(O)C[C@H](O[C@H]2C[C@H](N(C)C)[C@H](O[C@H]3C[C@H](O)[C@H](O[C@H]4CCC(=O)[C@H](C)O4)[C@H](C)O3)[C@H](C)O2)c2c(cc3c(c2O)C(=O)c2c(O)cccc2C3=O)[C@H]1C(=O)OC` [Aclarubicin hydrochloride], the solubility in acetone entry in series [1] (acetone) was “freely soluble”. Besides, the solubility in ether entry in series [1] (ether) is “practically insoluble”. In addition, the “solubility in fats and oils” value in series [1] (fats and oils) was “very sparingly soluble”. Also, the solubility in methanol entry in series [1] (methanol) was “freely soluble”. Further, the solubility in n-hexane entry in series [1] (n-hexane) was “practically insoluble”. The solubility in series [1] (olive oil, olive oil, aclarubicin hydrochloride, read-out: solubility in olive oil) was approximately 0.004 mg/mL; in series [1] (sesame oil, sesame oil, aclarubicin hydrochloride, read-out: solubility in sesame oil) it was 0.016 mg/mL. Moreover, the solubility in water entry in series [1] (water) is “freely soluble”.
As to `CC[C@@]1(O)C[C@H](O[C@H]2C[C@H](N(C)C)[C@H](O[C@H]3C[C@H](O)[C@H](O[C@H]4CCC(=O)[C@H](C)O4)[C@H](C)O3)[C@H](C)O2)c2c(cc3c(c2O)C(=O)c2c(O)cccc2C3=O)[C@H]1C(=O)OC` [Aclarubicin, methyl(1R, 2R, 4S)-2-ethyl-1,2,3,4,6,11-hexahydro-2,5,7-trihydroxy-6,11-dioxo-4-{[2,3,6-trideoxy-4-O-[2,6-dideoxy-4-O-((2R,6S)-tetrahydro-6-methyl-5-oxo-2H-pyran-2-yl)-α-1-lyxohexopyranocyl]-3-dimethylamino-α-1-lyxo-hexopyranocyl]oxy}-1-naphthacene carboxylate], the solubility is 10 mg/mL (≈ 12.3 mM) in series [1] (olive oil, olive oil, aclarubicin, read-out: solubility in olive oil) and 10 mg/mL (≈ 12.3 mM) in series [1] (sesame oil, sesame oil, aclarubicin, read-out: solubility in sesame oil).
Consider `O=C(O)/C=C/C(=O)O` [fumaric acid], for which the “dissolution of polycarboxylic acid in fats and oils” value in series [2] was “not dissolved in fats and oils”.

The record behind these values is patent US4772590A, “Oily composition of aclarubicin or hydrochloride thereof” (priority 1983, dated 1988).
